Test results taken from patent US6395758B1, “Small molecule carbamates or ureas for vision and memory disorders” (GPI Nil Holdings, Inc., priority 1998, dated 2002).
Marks after values point to notes of the source that are not given here. Blank lines part the entries; values can stand above or below the compound they belong to.

Assays:
[1] = Clearance (Table E comments); type: in vitro ADME; conditions: no method given
[2] = system: retinal ganglion cell axons; experiment: Protection of retinal ganglion cell axons 14 days after optic nerve transection (Table E); type: in vivo; conditions: ± SEM
Text: Efficacy of representative compounds from different immunophilin ligand series in protecting retinal ganglion cell axons from degeneration following optic nerve transection is set forth in Table E.

[3] = system: retinal ganglion cells, optic nerve axons and myelin; experiment: Retinal ischemia (intraocular pressure raised above arterial pressure), evaluation 28 days later; type: in vivo, rats
Text: Retinal ganglion cells were retrogradely labeled in adult rats by bilateral injection of fluorogold in their lateral geniculate nuclei. Labeled ganglion cells in the normal rat retina appear as white profiles against the dark background (FIG. 1A). Complete retinal ischemia was produced by infusing normal saline solution into the retinal vitreous cavity of each eye until the intraocular pressure exceeded arterial blood pressure. 28 days after the ischemic episode extensive degeneration of retinal ganglion cell was evidenced by massive reduction in the density of fluorogold labeled cells (FIG. 1B).
Optic nerves from vehicle treated cases examined 28 days after a 1 hour retinal ischemic episode are characterized by a decreased density of optic nerve axons and the appearance of numerous degenerating myelin figures (bright white filled circles).

aged impaired mice = experiment: Morris watermaze, spatial learning and memory in aged rodents; type: in vivo, C57BL/6N-Nia mice; conditions: 10 mg/kg daily
Text: The Morris watermaze is widely used for assessing spatial memory formation and retention in experimental animals. The test depends on the animal's ability to utilize spatial visual information in order to locate a submerged escape platform in a water tank. It is important that the tank itself be as devoid of specific visual features as possible—thus, it is always circular in shape, the sides are kept smooth and in uniform dull colors, and the water is rendered opaque with nontoxic watercolor pigment or powdered milk. This is to ensure that the animal navigates only by the use of more distant visual cues, or by the use of intra-maze cues specifically provided by the experimenter. The animals' path, speed, and swim time are tracked with a ceiling camera for later computerized analysis. Over the course of several successive trials, spatial learning can therefore be defined as a drop of distance swum, or time elapsed, from placement in the tank until escape onto the invisible platform. The procedure involved using three-month old (young) and 18-19 month old male C57BL/6N-Nia (aged) mice which habituated to the well known and conventional Morris watermaze during a 4 trials/day, 3-4 day visible platform training phase. […] Swim Distances (cm) were analyzed in a 7×5 ANOVA including Groups and Blocks (1-5) as factors in the analysis, treating Blocks as a repeated measure.

[4] = system: retinal ganglion cells and optic nerve axons; experiment: Optic nerve transection, 14 or 28 day treatment, evaluation 90 days after transection; type: in vivo, Sprague Dawley rats; conditions: 90 days after ONT; for increased ON axon density: adjusted for optic nerve diameter; for ON axon Count: axonal density multiplied by ON area; for Proximal optic nerve myelin basic protein Density, % recovery: ± SEM
Text: All eyes and optic nerves stumps were removed.

[5] = system: retinal ganglion cells and their axons; experiment: Example 18: optic nerve transection, 28 day GPI-1046, sacrifice at 90 days; type: in vivo, Sprague Dawley rats; conditions: 10 mg/kg/day s.c. for 28 days; 90 days after transection
Text: Transection of the mammalian optic nerve results in a brief period of abortive regeneration, but the majority of axotomized neurons die and the axons from many persisting ganglion cells die back beyond the optic nerve head.

[6] = system: streptozotocin-induced diabetic rat; experiment: Streptozotocin-induced diabetic sensory neuropathy, hot plate and tail flick; type: in vivo, Male Wistar rats; conditions: treated for 6 weeks at 10 mg/kg s.c., started six weeks after streptozotocin
Method: The procedure involved using Male Wistar rats which were given a single injection of streptozotocin (65 mg/kg i.v.). Blood glucose levels were determined weekly for the first three weeks and on the last week of the experiment. Animals were evaluated weekly for signs of sensory neuropathy using the conventional hot plate and tail flick apparatus test procedures.

[7] = system: retina (neovascularization, INL, GCL, ONL neurons); experiment: Streptozotocin induced diabetes, retinal neovascularization and neuron loss; type: in vivo
FKBP12 = FKBP12 (Homo sapiens, UniProt P62942); experiment: Ki test: inhibition of peptidyl-prolyl isomerase (rotamase) activity, chymotrypsin-coupled assay; type: biochemical; conditions: apparent Ki, Table II
FKBP12, sequence (P62942 whole entry, species assumed): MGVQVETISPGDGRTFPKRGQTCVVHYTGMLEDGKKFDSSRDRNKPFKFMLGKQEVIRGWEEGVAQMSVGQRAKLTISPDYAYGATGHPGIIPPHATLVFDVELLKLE
Text: The inhibition of the prolyl peptidyl cis-trans isomerase activity of FKBP may be measured as an indicator of this affinity. Inhibition of the peptidyl-prolyl isomerase (rotamase) activity of the compounds used in the inventive methods and pharmaceutical compositions can be evaluated by known methods described in the literature (Harding et al., Nature, 1989, 341:758-760; Holt et al. J. Am. Chem. Soc., 115:9923-9938). […] The cis-trans isomerization of an alanine-proline bond in a model substrate, N-succinyl-[…]-nitroanilide, is monitored spectrophotometrically in a chymotrypsin-coupled assay, which releases para-nitroanilide from the trans form of the substrate. The inhibition of this reaction caused by the addition of different concentrations of inhibitor is determined, and the data is analyzed as a change in first-order rate constant as a function of inhibitor concentration to yield the apparent Ki values. […] The absorbance at 390 nm versus time is monitored for 90 seconds using a spectrophotometer and the rate constants are determined from the absorbance versus time data files.

[8] = 28 day treatment beginning 8 weeks after onset of streptozotocin diabetes

SMILES: O=C(SCCCc1ccccc1)[C@@H]1CCCN1S(=O)(=O)Cc1ccccc1 [C]
Clearance [1]: 31.1 µL/min | RT97 + RGC axon density 14 days after ON transection (% ON axons rescued) [2]: 60.4% ± 3.1% SEM

Clearance [1]: 1.5 µL/min
SMILES: CCC(C)(C)C(=O)C(=O)N1CCC[C@H]1C(=O)CCCCc1cccnc1 [J]
RT97 + RGC axon density 14 days after ON transection (% ON axons rescued) [2]: 15.8% ± 4.8% SEM

SMILES: CCC(C)(C)C(=O)C(=O)N1CCC[C@H]1C(=O)SCCCc1cccnc1 [GPI 1046]
Clearance [1]: 63.8 µL/min | protection of fluorogold labeled retinal ganglion cells ([3]; 10 mg/kg s.c. 1 hour prior to ischemia and 10 mg/kg/day for next four days, 28 days after ischemia): noticeable protection of a large proportion of the vulnerable ganglion cell population | density of degenerating myelin figures in optic nerve ([3]; 28 days after 1 hour retinal ischemic episode): dramatically decreased the density of degenerating myelin figures | spatial memory performance, retention testing (swim distance), aged impaired GPI-1046 vs aged impaired vehicle (aged impaired mice; retention testing after 3 weeks of dosing, F1.69=8.11, P=0.006): significantly enhanced spatial memory performance | retention phase swim distance, young vs aged impaired GPI-1046 (aged impaired mice; F1.69=3.09, P=0.08): no longer any statistically significant difference | % RGCs Rescued ([4]; 14 days GPI 1046): 5.3% | % surviving RGCs with ON axons ([4]; 14 days GPI 1046): 33.6% | ON head area (% sham) ([4]; 14 days GPI 1046): 76% | Spared RGC population ([4]; 14 days GPI 1046): 20,275 | increased ON axon density ([4]; 14 days GPI 1046): 1.5× | ON axon Count ([4]; 14 days GPI 1046): 6820 | Distal optic nerve myelin basic protein loss ([4]; 14 days GPI 1046, cross sectional area multiplied by myelin density): 47% loss | Distal optic nerve shrinkage ([4]; 14 days GPI 1046, cross sectional area vs sham): 33% shrinkage | ON Axon density ([4]; 14 days GPI 1046, mean ± SEM RT97 labeled axons in 200 μm × 200 μm region): 569 ± 23 | Proximal optic nerve myelin basic protein Density, % recovery ([4]; 14 days GPI 1046, % areal coverage of cross section): 1.6 ± 3.0 SEM % recovery | RGC Counts ([4]; 28 days GPI 1046 10 mg/kg/day sc, mean density ± SEM of Fluoro-gold labeled RGC in 400 μm × 400 μm gridfields): 67.9 ± 5.8 | % surviving RGCs with ON axons ([4]; 28 days GPI 1046): 81.4% | Distal optic nerve myelin preservation ([4]; 28 days GPI 1046): 99% myelin | ON head area (% sham) ([4]; 28 days GPI 1046): 95%* | Spared RGC population ([4]; 28 days GPI 1046): 28,096* | increased ON axon density ([4]; 28 days GPI 1046): 5.0× | ON axon Count ([4]; 28 days GPI 1046): 22,861* | Distal optic nerve, less shrinkage ([4]; 28 days GPI 1046, cross sectional area vs sham): 56% less shrinkage* | Proximal optic nerve myelin basic protein Density, % recovery ([4]; 28 days GPI 1046): 70 ± 6.3 SEM % recovery | density of myelin, distal stump ([4]; first 14 days GPI 1046): slightly increase the density of myelin | shrinkage of the distal stump ([4]; first 14 days GPI 1046): did not protect against shrinkage | protection of optic nerve axons ([4]; first 14 days GPI 1046, proximal stump): 5.3% | cross sectional shrinkage of the distal stump ([4]; first 28 days GPI 1046): prevented cross sectional shrinkage | fascicular staining pattern for myelin basic protein, proximal stump ([4]; first 28 days GPI 1046): dramatic preservation of the fascicular staining pattern | myelin levels, distal stump, % of normal levels ([4]; first 28 days GPI 1046): 99% | RT97 + RGC axon density 14 days after ON transection (% ON axons rescued) [2]: 60.5% ± 3.9 SEM | axons in the proximal stump of the transected nerve (RT97) [5]: preserved the axons of virtually all protected neurons | ganglion cell population spared [5]: 25% | latency, hot plate and tail flick [6]: improvement in latency | neovascularization in the PR, ONL, OPL and INL [7, 8]: reduced neovascularization | neuronal loss in the ONL [7, 8]: did not appear to protect against neuronal loss | loss of neurons in the INL and GCL ([7]; 28 day treatment beginning 8 weeks after onset, vs streptozotocin/vehicle controls): appeared to decrease the loss of neurons

Clearance [1]: 8.0 µL/min
SMILES: O=C(OCCCc1cccnc1)[C@@H]1CCCN1C(=S)NC1CCCCC1 [I]
RT97 + RGC axon density 14 days after ON transection (% ON axons rescued) [2]: 23.8% ± 5.3 SEM

Clearance [1]: 41.8 µL/min
SMILES: CCC(C)(C)C(=O)C(=O)N1CCCCC1C(=O)OC(CCc1ccccc1)CCc1ccccc1 (stereo not drawn) [E]

SMILES: O=C(SCCCc1ccccc1)[C@@H]1CCCN1C(=O)NC12CC3CC(CC(C3)C1)C2 [B]
RT97 + RGC axon density 14 days after ON transection (% ON axons rescued) [2]: 100.0% ± 5.2% SEM

SMILES: CCC(C)(C)C(=O)C(=O)N1CCC[C@H]1C(=O)SCCC(c1ccccc1)c1ccccc1 [M]
Clearance [1]: 12.5 µL/min | RT97 + RGC axon density 14 days after ON transection (% ON axons rescued) [2]: −6.3% ± 3.9% SEM

SMILES: CCC(C)CNC(=O)N1CCC[C@H]1C(=O)OCCCc1cccnc1 (stereo partly drawn) [Compound 1, 3-(3-pyridyl)-1-propyl (2S)-1-[(2-methylbutyl)carbamoyl]pyrrolidine-2-carboxylate]
Ki (FKBP12): 0.07 µM

Clearance [1]: 4.5 µL/min
SMILES: CCC(C)(C)C(=O)C(=O)N1CCCC[C@H]1C(=O)SCCC(c1ccccc1)c1ccccc1 [Compound K]

SMILES: O=C(OCCCc1cccnc1)[C@@H]1CCCN1C(=O)NC1CCCCC1 [Compound 4, 3-(3-pyridyl)-1-propyl (2S)-1-[(cyclohexyl)carbamoyl]-pyrrolidine-2-carboxylate]
Ki (FKBP12): 1.48 µM

SMILES: O=C(OCCCc1cccnc1)[C@@H]1CCCN1C(=S)NC12CC3CC(CC(C3)C1)C2 [Compound 5, 3-(3-pyridyl)-1-propyl (2S)-1-[(1-adamantyl)thiocarbamoyl]-pyrrolidine-2-carboxylate]
Ki (FKBP12): 0.116 µM

Clearance [1]: 21.9 µL/min
SMILES: CN(C)C(=O)N1CCC[C@H]1C(=O)SCCCc1ccccc1 [N]

SMILES: CCC(C)(C)NC(=O)N1CCC[C@H]1C(=O)OCCCc1cccnc1 [Compound 2, 3-(3-Pyridyl)-1-propyl (2S)-1-[(1′,1′-dimethylpropyl)carbamoyl]pyrrolidine-2-carboxylate]
Ki (FKBP12): 0.742 µM

SMILES: CCC(C)(C)C(=O)C(=O)N1CCCC[C@H]1C(=O)O [G]
RT97 + RGC axon density 14 days after ON transection (% ON axons rescued) [2]: 34.0% ± 4.8% SEM

SMILES: CCC(C)(C)C(=O)C(=O)N1CCC[C@H]1C(=O)O [L]
Clearance [1]: 5.2 µL/min | RT97 + RGC axon density 14 days after ON transection (% ON axons rescued) [2]: 7.8% ± 3.0% SEM

SMILES: CCC(C)(C)C(=O)C(=O)N1CCCC[C@H]1C(N)=O [H]
RT97 + RGC axon density 14 days after ON transection (% ON axons rescued) [2]: 30.3% ± 8.0% SEM
